The conditions of assay [1]: sucrose per unit concentration Brix 1 = 1, cited from earlier work.
For assay [2], the target named is T1, sweet taste receptor (T1R2/T1R3) (Homo sapiens, UniProt Q7RTX0+Q8TE23).
T1 construct: endogenous in cells; host or cells: taste cells in the mouths of 3 trained human panelists (in vivo spitting test)
T1 sequence (Q8TE23 20-839): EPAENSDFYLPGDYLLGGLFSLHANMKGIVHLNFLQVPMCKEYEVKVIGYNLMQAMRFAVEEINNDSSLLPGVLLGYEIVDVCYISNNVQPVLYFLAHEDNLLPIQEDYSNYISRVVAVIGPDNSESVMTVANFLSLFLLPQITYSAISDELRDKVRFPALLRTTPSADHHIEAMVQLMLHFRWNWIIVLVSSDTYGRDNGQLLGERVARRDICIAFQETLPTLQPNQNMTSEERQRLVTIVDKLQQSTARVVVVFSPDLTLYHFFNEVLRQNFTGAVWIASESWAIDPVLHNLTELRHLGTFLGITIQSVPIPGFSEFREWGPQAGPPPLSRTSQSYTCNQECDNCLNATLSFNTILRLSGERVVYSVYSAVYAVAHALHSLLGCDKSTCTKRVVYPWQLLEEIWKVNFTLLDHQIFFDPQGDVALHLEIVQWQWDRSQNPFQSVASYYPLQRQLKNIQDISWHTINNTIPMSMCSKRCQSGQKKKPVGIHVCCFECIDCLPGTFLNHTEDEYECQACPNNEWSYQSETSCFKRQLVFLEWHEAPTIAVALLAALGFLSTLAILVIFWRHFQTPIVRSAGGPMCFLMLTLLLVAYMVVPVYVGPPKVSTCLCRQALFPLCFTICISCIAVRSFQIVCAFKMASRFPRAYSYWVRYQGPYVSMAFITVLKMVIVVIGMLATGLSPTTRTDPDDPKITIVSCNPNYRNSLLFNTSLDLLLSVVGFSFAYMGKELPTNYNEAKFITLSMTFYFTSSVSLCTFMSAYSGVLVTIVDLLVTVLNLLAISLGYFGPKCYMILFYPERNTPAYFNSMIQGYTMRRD
T1 sequence (Q7RTX0 21-852): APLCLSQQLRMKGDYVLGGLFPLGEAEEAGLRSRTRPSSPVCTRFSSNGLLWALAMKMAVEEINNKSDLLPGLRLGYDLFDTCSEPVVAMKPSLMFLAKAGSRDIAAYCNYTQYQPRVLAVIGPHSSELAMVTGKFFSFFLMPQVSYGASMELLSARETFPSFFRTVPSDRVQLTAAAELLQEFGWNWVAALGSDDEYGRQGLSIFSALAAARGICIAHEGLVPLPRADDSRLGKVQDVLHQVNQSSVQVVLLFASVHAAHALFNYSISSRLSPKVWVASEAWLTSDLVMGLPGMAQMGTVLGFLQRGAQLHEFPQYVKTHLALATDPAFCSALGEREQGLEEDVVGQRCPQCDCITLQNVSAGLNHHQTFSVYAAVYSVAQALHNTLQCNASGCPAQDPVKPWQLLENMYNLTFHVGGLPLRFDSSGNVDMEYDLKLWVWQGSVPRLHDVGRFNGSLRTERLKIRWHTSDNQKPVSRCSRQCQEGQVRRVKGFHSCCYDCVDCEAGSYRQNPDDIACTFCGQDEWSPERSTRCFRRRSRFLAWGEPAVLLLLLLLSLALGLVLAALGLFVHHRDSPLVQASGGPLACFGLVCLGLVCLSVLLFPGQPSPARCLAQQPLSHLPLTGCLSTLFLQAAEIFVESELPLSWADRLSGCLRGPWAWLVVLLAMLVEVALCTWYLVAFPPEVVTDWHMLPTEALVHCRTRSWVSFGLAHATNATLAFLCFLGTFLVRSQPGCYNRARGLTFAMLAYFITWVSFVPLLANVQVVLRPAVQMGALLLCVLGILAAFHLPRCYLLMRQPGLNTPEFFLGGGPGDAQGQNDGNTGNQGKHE
Kind of assay: Sensory evaluation of sweetness intensity (VAS) in the co-presence of sweet taste receptor inhibitor lactisole (Example 5). In kind it is in vivo. The settings on record: for Sweetness intensity residual ratio (%) with addition of 100 ppm lactisole: lactisole-free solution = 100%, sucrose 8 w/v %, sucralose 149 ppm, D- or L-arabinose 13.3 w/v %, VAS, average of n=3. An excerpt:
Whether or not a certain sweet substance can trigger a sweetness response even if a sweetness response through the sweet taste receptor T1R2/T1R3 is inhibited may be determined by, for instance, measuring, by sensory evaluation or cell assay, the sweetness intensity of a solution (control solution), in which only the above sweet substance has been dissolved, and the sweetness intensity (remaining sweetness intensity) of a solution (test solution), in which a sweet taste receptor T1R2/T1R3 inhibitor (e.g., lactisole, gymnemic acid) is added for inhibiting a sweetness response through the sweet taste receptor T1R2/T1R3 to the control solution; and by comparing the sweetness intensity of the control solution and the sweetness intensity of the test solution.
The evaluation was carried out by those (3 persons) who received sensory trainings as panelists. […] Additionally, solutions having the same composition as sample solutions 1, 2, 3, and 4 except that lactisole was not added were used as control solutions 1, 2, 3, and 4. The sensory evaluation was carried out by spitting test. The sweetness intensity was rated by the VAS scale and calculated with the intensity of a solution to which lactisole was not added being 100% and the sweetness intensity of a solution to which lactisole was added as a relative value (%). The sweetness inhibitory effect by lactisole was verified by this.

A short description of assay [3]: Degree of sweetness relative to sucrose. To be noted: value used to design the sample solutions of Example 5. From the text:
The “sweetness intensity” means an intensity of sweetness of a substance. […] A numerical value obtained by multiplying the degree of sweetness by a concentration Brix value of glucose is the sweetness intensity of glucose in terms of sucrose. Thus, when a concentration of glucose in terms of sucrose is Brix 1.5, the sweetness intensity of glucose is 0.65×1.5=0.975. The sweetness intensity of a sweetener in terms of sucrose can be calculated from a degree of sweetness shown in the following table or a value of a known degree of sweetness.
For example, when the sweetness intensity of sucrose per unit concentration Brix 1 is defined as a degree of sweetness of 1, a degree of sweetness of rebaudioside D is about 200 to 250 (median value 225), a degree of sweetness of rebaudioside M is about 200 to 260 (median value 230), a degree of sweetness of rebaudioside B is about 325, a degree of sweetness of rebaudioside A is about 200 to 300 (median value 250), a degree of sweetness of rebaudioside N is about 200 to 250 (median value 225), a degree of sweetness of rebaudioside O is about 200 to 250 (median value 225), a degree of sweetness of rebaudioside E is about 70 to 80 (median value 75), a degree of sweetness of a Luo han guo extract (containing 40% of Mog V) is about 110 to 150 (median value 130), a degree of sweetness of mogroside V is about 240 to 300 (median value 270), and a degree of sweetness of thaumatin is about 2,000, and a degree of sweetness of brazzein is about 500 to 2,000 (median value 1,250). The numerical value obtained by multiplying these degrees of sweetness by a concentration (w/v % (considered to be the same as w/w % in the case of a beverage)) of the high-intensity sweetener in a fruit juice beverage is a sweetness intensity of the high-intensity sweetener. The relative ratio in degrees of sweetness of various sweeteners to the degree of sweetness of 1 of sucrose can be determined from a known sugar sweetness conversion table, and the like. In the present description, when a degree of sweetness is shown in a numerical value range, the median value may be used. However, a sweetener having different values in a degree of sweetness by literatures, a relative ratio in a degree of sweetness to the degree of sweetness of 1 of sucrose can be defined by a sensory test. Examples of such a sensory test include a method in which samples were prepared by adding sucrose having a sweetness intensity of Brix 3.0 to 5.0 in 0.5 increments to pure water, and of which a sucrose-added sample having a sweetness intensity equal to an aqueous solution of a sweetener in a predetermined concentration is selected.
Additionally, for a sweetener with a variable degree of sweetness as a sweetness intensity increases, degrees of sweetness in different concentrations are actually measured and plotted whereby a degree of sweetness in a predetermined concentration may be calculated from the obtained approximate curve.

A short description of assay [4]: Basic taste quality sensory evaluation by trained panelists, spitting test, against 6% sucrose control (Example 1). Type of assay: in vivo, human. The settings on record: scale −3 to 3, 0 = no difference from 6% sucrose control; D-allulose 8.57 w/v %, D-arabinose 10 w/v % in pure water; 4 panelists. The protocol:
In each evaluation item, the rating on a scale of −3 point to 3 point was performed, with the case where there is no difference from the control solution being 0. Quicker in sweetness onset, higher sweetness intensity, shorter lingering sweet aftertaste, lower bitterness intensity, and shorter lingering bitter aftertaste compared to the control were rated near 3 points. Slower in sweetness onset, lower sweetness intensity, longer lingering sweet aftertaste, higher bitterness intensity, and longer lingering bitter aftertaste compared to the control were rated near −3 points. That is, the closer to 0 point, the closer to the control. The evaluation was carried out by those (4 persons) who received sensory trainings as panelists by spitting test. The amount of a sweet substance contained in each sample solution was adjusted to be equal to the control solution on the calculation. […] The energy (kcal/100 ml) was calculated from the amount of the sweetener added.

Where two headings read alike, the source gives them in different places.

As to `O=C[C@H](O)[C@H](O)[C@H](O)[C@H](O)CO` [Allose], in assay [1] (Table 1), the Degree of sweetness was 0.8.
As for `O=C[C@H](O)[C@@H](O)[C@@H](O)CO` [L-Arabinose], the “remaining sweetness intensity when 100 ppm of lactisole was added, compared with sucrose” value in assay [2] (100 ppm lactisole) is recorded as “equal to or more than that of sucrose”. Also, the “Sweetness intensity residual ratio (%) with addition of 100 ppm lactisole” value (“Sweetness intensity residual ratio (%)” for short) in assay [2] came to 34.43%. In addition, the “sweetness intensity, times as much as that of sucrose” value in assay [3] was found to be 0.6 times.
Turning to `OC[C@H]1O[C@H](O[C@H]2[C@H](O)[C@@H](O)[C@H](O)O[C@@H]2CO)[C@H](O)[C@@H](O)[C@@H]1O` [Maltose], in assay [1] (Table 1), the Degree of sweetness is 0.4.
Regarding `OC[C@H]1O[C@H](O[C@]2(CCl)O[C@H](CCl)[C@@H](O)[C@@H]2O)[C@H](O)[C@@H](O)[C@H]1Cl` [Sucralose], the “Sweetness intensity residual ratio (%)” value in assay [2] came out at 8.99%. The “sweetness intensity, times as much as that of sucrose” value in assay [3] is 538.54 times.
For `OC[C@H]1O[C@@](CO)(O[C@H]2O[C@H](CO)[C@@H](O)[C@H](O)[C@H]2O)[C@@H](O)[C@@H]1O` [Sucrose], in assay [2], the “Sweetness intensity residual ratio (%)” value was found to be 29.05%. Further, in assay [4], the Bitterness intensity was found to be 0 point, the Lingering bitter aftertaste is 0 point, the Lingering sweet aftertaste is 0 point and the “Quickness in sweetness onset” value was found to be 0 point. The Sweetness intensity in assay [4] is reported as 0 point. The Degree of sweetness in assay [1] (Table 1) is reported as 1.
In the case of `O=C(CO)[C@@H](O)[C@@H](O)[C@H](O)CO` [Tagatose], in assay [1] (Table 1), the Degree of sweetness was 0.9.
On to rebaudioside B, for which, in assay [1] (high-intensity sweeteners), the Degree of sweetness result is listed as “about 325”.
Turning to thaumatin, in assay [1] (high-intensity sweeteners), the Degree of sweetness result is given as “about 2,000”.

(Values after patent US20240122212A1 (SUNTORY HOLDINGS LIMITED, priority 2020, published 2024).)
